Experimental data as given in PubChem BioAssay AID2243 (The Scripps Research Institute Molecular Screening Center, 2010).
The source made the active and inactive calls. No rule for the calls is given here.

Tested on: cytotoxicity counterscreen, ATP luminescence viability
Test: cell viability loss – luminescence, cytotoxicity control for RBBP9 inhibitor project, late-stage follow-up (AID 2243)

C/C(=N\OC(=O)C1CCCCC1)c1nccs1
CC50: > 100 µM (inactive)
